Test results reported in patent publication US20240366540A1, “MITOFUSIN INHIBITORS AND USES THEREOF” (Albert Einstein College of Medicine, priority 2021, published 2024).

Legend:
[1] = system: MEFs; experiment: Caspase-3/7 activation assay; assay type: cell-based, mouse
Experimental: Caspase-3/7 activation assay. Cells (5×10^3 cells/well) were seeded in a 96-well white plate and treated with MASM7, MFI8. Caspase 3/7 activation was measured after 6 hr by addition of the Caspase-Glo 3/7 reagent according to the manufacturer's protocol (Promega). Luminescence was detected by a F200 PRO microplate reader (TECAN). Caspase assays were performed in at least triplicate and the data normalized to vehicle-treated control wells. Dilutions of MASM7 or MFI8 were performed using a TECAN D300e Digital Dispenser from 10 mM stocks.

[2] = system: cells; experiment: Cell viability assay (CellTiter-Glo); assay type: cell-based; conditions: 72 hours
Experimental: Cell viability assay. […] Cell viability was assayed after 72 hrs by addition of CellTiter-Glo reagent according to the manufacturer's protocol (Promega). Luminescence was measured using a […] microplate reader (TECAN). Viability assays were performed in at least triplicate and the data normalized to vehicle-treated control wells.

## Cc1cccc(NC(C)c2cc(Cl)ccc2O)c1C (stereo not shown) [MFI8, 4-Chloro-2-(1-((2,3-dimethylphenyl)amino)ethyl)phenol]
[1]; 6 hr, Caspase-Glo 3/7
  caspase-3/7 activity: concentration-responsively increased caspase-3/7 activity
[1]; deletion of APAF-1
  caspase 3/7 activity: detrimental for the capacity of MFI8 to increase caspase 3/7 activity
[1]; deletion of MFN1/MFN2
  caspase-3/7 activity: impaired the capacity of MFI8 to increase caspase-3/7 activity
[2]
  cellular viability: neither MFI8 nor MASM7 decreased cellular viability
